Laboratory results reported in ChEMBL document CHEMBL6115007, “Synthesis and in vitro and in vivo evaluation of novel bivalent quinolines as antitumor agents via targeting autophagy in cervical cancer” (Eur J Med Chem, 2025).
Activity calls are given as the source filed them. No cut-off for these calls is given here.

How the values were obtained:
[1] = tested on: HeLa; assay: Antiproliferative activity against human HeLa cells assessed as inhibition of cell viability incubated for 24 hrs by CCK8 assay; type: functional, cell-based
[2] = tested on: HeLa; assay: Inhibition of cell migration in human HeLa cells at 0.6 to 1.2 uM measured after 24 hrs by transwell migration assay; type: functional, cell-based; conditions: dose 0.6-1.2 µM
[3] = tested on: Ca-Ski; assay: Induction of morphological changes in human Ca Ski cells assessed as decrease in cell adherence to culture dish at 0.5 to 2 uM by microphotographic analysis; type: functional, cell-based; conditions: dose 0.5-2 µM
[4] = tested on: HeLa; assay: Induction of apoptosis in human HeLa cells assessed as early apoptotic cells at 1.2 uM incubated for 24 hrs by Annexin V-FITC/PI staining based flow cytometric analysis (reference value: 0.97 %); type: functional
[5] = tested on: HeLa; assay: Induction of apoptosis in human HeLa cells assessed as necrotic cells at 1.2 uM incubated for 24 hrs by Annexin V-FITC/PI staining based flow cytometric analysis (reference value: 1.88 %); type: functional
[6] = tested on: HeLa; assay: Induction of apoptosis in human HeLa cells assessed as early apoptotic cells at 0.6 uM preincubated with Z-VAD-FMK for 1 hrs followed by compound addition and measured after 24 hrs by Annexin V-FITC/PI staining based flow cytometric analysis (reference value: 0.96 %); type: functional
[7] = tested on: HeLa; assay: Induction of apoptosis in human HeLa cells assessed as necrotic cells at 0.6 uM preincubated with Z-VAD-FMK for 1 hrs followed by compound addition and measured after 24 hrs by Annexin V-FITC/PI staining based flow cytometric analysis (reference value: 2.16 %); type: functional
[8] = tested on: HeLa; assay: Induction of apoptosis in human HeLa cells assessed as late apoptotic cells at 1.2 uM preincubated with Z-VAD-FMK for 1 hrs followed by compound addition and measured after 24 hrs by Annexin V-FITC/PI staining based flow cytometric analysis (reference value: 1.02 %); type: functional
[9] = tested on: HeLa; assay: Induction of apoptosis in human HeLa cells assessed as necrotic cells at 1.2 uM preincubated with Z-VAD-FMK for 1 hrs followed by compound addition and measured after 24 hrs by Annexin V-FITC/PI staining based flow cytometric analysis (reference value: 2.16 %); type: functional
[10] = tested on: Ca-Ski; assay: Induction of apoptosis in human Ca Ski cells assessed as viable cells at 1 uM incubated for 24 hrs by Annexin V-FITC/PI staining based flow cytometric analysis (reference value: 86.8 %); type: functional; conditions: read-out: Activity
[11] = tested on: Ca-Ski; assay: Induction of apoptosis in human Ca Ski cells assessed as late apoptotic cells at 1 uM incubated for 24 hrs by Annexin V-FITC/PI staining based flow cytometric analysis (reference value: 5.33 %); type: functional
[12] = tested on: Ca-Ski; assay: Induction of apoptosis in human Ca Ski cells assessed as viable cells at 1 uM preincubated with Z-VAD-FMK for 1 hrs followed by compound addition and measured after 24 hrs by Annexin V-FITC/PI staining based flow cytometric analysis (reference value: 90.2 %); type: functional; conditions: read-out: Activity
[13] = tested on: Ca-Ski; assay: Induction of apoptosis in human Ca Ski cells assessed as necrotic cells at 1 uM preincubated with Z-VAD-FMK for 1 hrs followed by compound addition and measured after 24 hrs by Annexin V-FITC/PI staining based flow cytometric analysis (reference value: 1.54 %); type: functional
[14] = tested on: HeLa; assay: Effect on caspase 3 expression level in human HeLa cells at 0.3 to 1.2 uM incubated for 24 hrs by Western blot analysis; type: functional, cell-based; conditions: dose 0.3-1.2 µM
[15] = tested on: Ca-Ski; assay: Effect on cleaved PARP expression level in human Ca Ski cells at 0.25 to 1 uM incubated for 24 hrs by Western blot analysis; type: functional, cell-based; conditions: dose 0.25-1 µM
[16] = tested on: HeLa; assay: Antiproliferative activity against p53 deficient human HeLa cells assessed as inhibition of cell viability incubated for 24 hrs by CCK8 assay; type: functional, cell-based
[17] = tested on: Ca-Ski; assay: Effect on caspase 3 expression level in p53 deficient human Ca Ski cells at 0.5 to 1 uM incubated for 24 hrs by Western blot analysis; type: functional, cell-based; conditions: dose 0.5-1 µM
[18] = tested on: Ca-Ski; assay: Effect on cleaved caspase 3 expression level in p53 deficient human Ca Ski cells at 0.5 to 1 uM incubated for 24 hrs by Western blot analysis; type: functional, cell-based; conditions: dose 0.5-1 µM
[19] = tested on: Ca-Ski; assay: Effect on caspase 3 expression level in Bax deficient human Ca Ski cells at 0.5 to 1 uM incubated for 24 hrs by Western blot analysis; type: functional, cell-based; conditions: dose 0.5-1 µM
[20] = tested on: HeLa; assay: Effect on GPX4 protein expression level in human HeLa cells at 0.6 uM incubated for 24 hrs by Western blot analysis; type: functional, cell-based
[21] = tested on: Ca-Ski; assay: Effect on SLC7A11 protein expression level in human Ca Ski cells at 0.5 uM incubated for 24 hrs by Western blot analysis; type: functional, cell-based
[22] = tested on: Ca-Ski; assay: Effect on GPX4 protein expression level in human Ca Ski cells at 0.5 uM incubated for 24 hrs by Western blot analysis; type: functional, cell-based
[23] = tested on: HeLa; assay: Induction of autophagy in human HeLa cells transfected with mRFP-GFP-LC3 plasmid assessed as stable RFP fluorescence at 0.4 to 0.8 uM incubated for 24 hrs by DAPI staining based fluorescence confocal microscopic analysis; type: functional, cell-based; conditions: dose 0.4-0.8 µM
[24] = tested on: Ca-Ski; assay: Induction of autophagy in human Ca Ski cells assessed as increase in LC3-I conversion to LC3-II at 0.25 to 1 microM incubated for 24 hrs by Western blot analysis; type: functional, cell-based; conditions: dose 0.25-1 µM
[25] = tested on: Ca-Ski; assay: Induction of autophagy in human Ca Ski cells assessed as increase in LC3-II accumulation at 0.5 uM incubated for 3 to 48 hrs by Western blot analysis; type: functional, cell-based; conditions: time 3-48 hrs
[26] = tested on: HeLa; assay: Induction of autophagy pathway in human HeLa cells at 1.2 uM incubated for 24 hrs by GSEA analysis; type: functional, cell-based
[27] = tested on: HeLa; assay: Effect on ATG16L1 protein level in human HeLa cells at 0.6 to 1.2 uM incubated for 24 hrs by Western blot analysis; type: functional, cell-based; conditions: dose 0.6-1.2 µM
[28] = tested on: HeLa; assay: Effect on Beclin1 protein level in human HeLa cells at 0.6 to 1.2 uM incubated for 24 hrs by Western blot analysis; type: functional, cell-based; conditions: dose 0.6-1.2 µM
[29] = tested on: Ca-Ski; assay: Induction of autophagy in ATG5 deficient human Ca Ski cells assessed as increase in LC3-II expression at 0.5 to 1 uM incubated for 24 hrs by Western blot analysis; type: functional, cell-based; conditions: dose 0.5-1 µM
[30] = tested on: Ca-Ski; assay: Inhibition of colony formation in ATG5 deficient human Ca Ski cells at 0.1 to 0.4 uM incubated for 24 hrs by crystal violet staining based analysis; type: functional, cell-based; conditions: dose 0.1-0.4 µM
[31] = Toxicity in female BALB/c mouse xenografted with human HeLa cells assessed as effect on kidney at 4 to 8 mg/kg administered every four days and measured after 26 days by H and E staining based analysis; type: organism-based; conditions: in vivo, 624 h, dose 4-8 mg/kg, time 26 day
[32] = Toxicity in female BALB/c mouse xenografted with human HeLa cells assessed as effect on platelet level at 4 to 8 mg/kg administered every four days and measured after 26 days; type: organism-based; conditions: in vivo, 624 h, dose 4-8 mg/kg, time 26 day
[33] = tested on: HeLa; assay: Induction of autophagy in human HeLa cells transfected with mRFP-GFP-LC3 plasmid assessed as decrease in GFP fluorescence at 30 uM incubated for 24 hrs by DAPI staining based fluorescence confocal microscopic analysis; type: functional, cell-based
[34] = tested on: Ca-Ski; assay: Induction of autophagy in human Ca Ski cells transfected with mRFP-GFP-LC3 plasmid assessed as stable RFP fluorescence at 25 uM incubated for 24 hrs by DAPI staining based fluorescence confocal microscopic analysis; type: functional, cell-based

For `COc1cccc(Nc2ccnc3cc(OCCCCCOc4ccc5c(Nc6cccc(OC)c6)ccnc5c4)ccc23)c1`, the Activity [1] was “Dose-dependent-effect”, the IC50 [1] was 648 nM and the inhibition [2] was “Active”. For the same compound, the Activity [3] was “Active”, the Activity [4] was 1.25% and the Activity [5] was 1.47%. It also gave an Activity [6] of 1.31%, an Activity [7] of 1.01% and an Activity [8] of 3.71%. It also gave an Activity [9] of 1.49%, a viability at 1 µM [10] of 82% and an Activity [11] of 7.8%. For the same compound, the viability at 1 µM [12] was 86.1%, the Activity [13] was 1.7% and the Activity [14] was “inactive”. The Activity [15] was “inactive”, the IC50 [16] was 1110 nM and the Activity [17] was “inactive”. For the same compound, the Activity [18] was “inactive”, the Activity [19] was “inactive” and the Activity [20] was “Moderate_effect”. For the same compound, the Activity [21] was “Moderate_effect”, the Activity [22] was “Moderate_effect” and the Activity [23] was “Active”. The Activity [24] was “Active”, the Activity [25] was “Active” and the Activity [26] was “Active”. The Activity [27] was “inactive”, the Activity [28] was “inactive” and the Activity [29] was “inactive”. For the same compound, the inhibition [30] was “Minimal_effect”, the Activity [31] was “Non-toxic” and the Activity [32] was “Non-toxic”. The Activity [33] was “Active” and the Activity [34] was “Active”.
